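Compound exposure: 48 hours, 5 concentrations, 96-well plates. GI50 = concentration required for 50% inhibition of growth.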 Activity calls are given as the source filed them. Cut-off read from the data, not from the text of the source: active = GI50 up to about 1.1 µM and inactive = higher.
Experiments:
Experiment in all cases: growth of human tumour cells (NCI), 48 h
A498 = tested on: A498
SR = tested on: SR
UO-31 = tested on: UO-31
HL-60 = tested on: HL-60
SNB-78 = tested on: SNB-78
DMS-273 = tested on: DMS-273
RPMI-8226 = tested on: RPMI-8226
ACHN = tested on: ACHN
OVCAR-3 = tested on: OVCAR-3
A549 = tested on: A549
U-251 = tested on: U-251
IGROV-1 = tested on: IGROV-1
SK-MEL-2 = tested on: SK-MEL-2
NCI-H522 = tested on: NCI-H522
NCI-H23 = tested on: NCI-H23
HCC 2998 = tested on: HCC 2998
KM12 = tested on: KM12
CCRF-CEM = tested on: CCRF-CEM
TK-10 = tested on: TK-10
Malme-3M = tested on: Malme-3M

Measured: GI50

CC(=O)c1ccccc1NC(=O)C(=O)C(C(=O)c1ccccc1-c1ccccc1)C1OC(=O)c2ccccc21 (stereo not given)
inactive: A498 20.5 µM | SR 21.6 µM | UO-31 18.2 µM | HL-60 23.9 µM | SNB-78 30.4 µM | DMS-273 31.9 µM | RPMI-8226 27.3 µM | ACHN 22.5 µM | OVCAR-3 20.7 µM | A549 25.5 µM | U-251 16 µM | IGROV-1 22.2 µM | SK-MEL-2 17.2 µM | NCI-H522 14.7 µM | NCI-H23 16.5 µM | HCC 2998 16.2 µM | KM12 18 µM | CCRF-CEM 25.1 µM | TK-10 14.9 µM | Malme-3M 15.5 µM
